Data published in patent US20070054868A1, “Synergistic polyphenol compounds, compositions thereof, and uses thereof” (The Trustees of Columbia University in the City of New York, priority 2005, published 2007).
“Also recorded” adds a separate entry of the source.

Tests used:
[1] = system: EGFR, ERK1, ERK2, and AKT; test: Phosphorylation of signaling proteins in HT29 cells; assay type: cell-based, human
Method: These effects were detected with as little as […] of EGCG, and within 5 minutes. Phosphorylation of EGFR, ERK1, ERK2, and AKT were suppressed in cells treated with methyl-β-cyclodextrin, which depletes plasma membrane cholesterol. […] In addition, the inhibitory effect of EGCG on phosphorylation of EGFR was not blocked by the addition of cholesterol on the growth medium. These findings provide evidence that EGCG can alter membrane domain organization in colon cancer cells ant that this is not due to cholesterol depletion. It was noted that pre-treatment of the cells with EGCG or Poly E inhibited the binding of Alexa 488-labeled EGF to the cell surface receptor EGFR.

SW837 = test: Growth inhibition IC50 against colorectal cell lines; assay type: cell-based, human
Text: (§1) Cell lines and cell culture. The Caco2, HCT116, HT29, SW480, and SW837 human colorectal cancer cell lines and the FHC normal human fetal colon cell line were obtained from American Type Culture Collection (Manassas, Va.). All cell lines were maintained in DF10 medium containing DMEM (Invitrogen, San Diego, Calif.) supplemented with 10% fetal bovine serum (Invitrogen). The FHC cell line was originally established from the colon of a human fetus at 13 weeks of gestation and has an epithelial morphology. Cells were cultured in an incubator with humidified air at 37° C. with 5% CO2. As an untreated solvent control, cells were treated with DMSO (Sigma Chemical Co., St. Louis, Mo.) at a final concentration of <0.1%. […] Cells to be tested against were plated onto 96-well plates (3×10^3 cells/well) and twenty-four hours later, the cells were treated with an illustrative Synergistic Polyphenol Composition, or one or more illustrative Synergistic Polyphenol Compounds. Neither the medium nor the test compounds were changed during this time period. The assay was done in triplicate. […] The medium and test compounds were not changed during this time period. As a control, the cells were treated with 0.1% DMSO. […] The numbers of cells in replica plates were then determined using a Coulter Counter (Beckman Coulter Co., Fullerton, Calif.) as described in Shimizu et al., Clin. Cancer Res. 2004: 10:1130-40.

FHC = test: Growth inhibition IC50 against normal fetal colon cell line; assay type: cell-based, human; settings: conclusion from Table 4
Text: as §1

IGF-2 = test: Production of growth factors in HepG2 cells; assay type: cell-based, human; settings: 20 μg/mL, listed as EGCG
Method: (§2) The cells were treated with […] EGCG at 0, 3, 6, 12, 24 and 48 hours, and cell extracts were examined by Western blot analysis using the respective antibodies, or were examined by semiquantitative RT-PCR analysis using IGFBP-3 or IGF-1 specific primers.
(§3) Using the MTT cell proliferation assay described in Example 21, and substituting HepG2 human liver cancer cells in place of SW837 cells, the effects of EGCG (20 μg/mL), an illustrative Synergistic Polyphenol Compound, on the production of IGF-1, IGF-2 and IGFBP-3 was determined. […] Accordingly, the Synergistic Polyphenol Compounds are useful for treating or preventing liver cancer.

IGF-1 = test: Production of growth factors in HepG2 cells; assay type: cell-based, human; settings: 20 μg/mL, listed as EGCG
Method: as §2, §3

p-IGF-1R = test: Western blot analysis for IGF in SW837 cells; assay type: cell-based, human; settings: 20 μg/mL, within 6 hours
Text: (§4) Total cellular protein was extracted and equivalent amounts of protein were examined by western blot analysis, as described above in Example 6. Cell lysates were separated by SDS-PAGE using 7.5 to 15% polyacrylamide gels and transferred onto Immobilon-P transfer membranes (Millipore Co., Bedford, Mass.). The primary antibodies for IGF-1R[…](#3022) and p-IGF-1R (#3021) were purchased from Cell Signaling Technology (Beverly, Mass.). The primary antibodies for IGF-1R[…](sc-713) and IGFBP-3 (sc-6003) were purchased from Santa Cruz Biotechnology (Santa Cruz, Calif.). The primary antibodies for IGF-1 (clone Sm1.2) and actin (A2066) were purchased from Upstate Cell Signaling Solutions (Charlottesville, Va.) and Sigma Chemical Co. (St Louis, Mo.), respectively. An antibody to actin was used as a loading control. Anti-mouse IgG (Amersham Pharmacia Biosciences, Piscataway, N.J.), anti-rabbit IgG (Amersham Pharmacia Biosciences), or anti-goat IgG (Santa Cruz Biotechnology) antibodies were used as the secondary antibodies. Each membrane was developed using an ECL-enhanced chemiluminescence system (Amersham Biosciences).

IGFBP-3 protein = test: Western blot analysis for IGF in SW837 cells; assay type: cell-based, human
Text: as §4

IGF-1 protein = test: Western blot analysis for IGF in SW837 cells; assay type: cell-based, human
Text: as §4

HT29 cells = test: Incorporation of DilC16 into the plasma membrane after pretreatment; assay type: cell-based, human; settings: HT29 pretreated with test substance
[2] = system: SW837 human colon cancer cells; test: Cell proliferation assay (Coulter Counter); assay type: cell-based; settings: 1.0 μg/mL, 96 hours
Method: Thirty thousand SW837 human colon cancer cells were seeded into multiple 35-mm diameter dishes in DFI0 medium, and 24 hours later the cells were treated with EGCG (0, 1.0, or 20 μg/mL) for 96 hours, during which time, the medium and drugs were not changed. As a control, the cells were treated with 0.1% DMSO. Every 24 hours, and for a total time of 96 hours, replicate plates of cells were washed with PBS and the attached cells were collected by trypsinization. The numbers of cells in replica plates were then counted using a Coulter Counter (Beckman Coulter Co., Fullerton, Calif.) as described in Shimizu et al., Clin. Cancer Res., 10:1130-1140 (2004).

[3] = obtained in a clinical study; value said to be in the range of the peak; cited from earlier work
PGE2 = PGE2 production assay (EIA) in SW837 cells; assay type: cell-based, human; settings: 10, 20 or 40 μg/mL, 18 hours, 20 μM arachidonic acid
Method: SW837 human colon cancer cells were plated into 35-mm dishes and grown to 60% confluence. The cells were then treated with EGCG (0, 10, 20, or 40 μg/mL) in serum minus medium containing 20 μM arachidonic acid (Sigma) for 18 hours. The cell free medium was then collected and the amounts of PGE2 released by cells into the medium were measured using an EIA kit (Cayman Chemicals, Ann Arbor, Mich.), according to the manufacturer's instructions. Production of PGE2 was normalized to the protein concentration of the cells.

Substance: (−)-epigallocatechin gallate
- inhibitory effect on phosphorylation of EGFR on addition of cholesterol to the growth medium [1]: not blocked
- IC50 (SW837): 19.6 µg/mL
- IC50 concentration determined by MTT assays (SW837): 20 µg/mL
- growth inhibition of colorectal cancer cells relative to FHC normal cells (FHC): preferentially inhibit
- production of IGF-2 (IGF-2): inhibited production; also recorded: decreased the production
- production of IGF-1 (IGF-1): inhibited production; also recorded: decreased the production
- levels of the p-IGF-1R protein (p-IGF-1R): marked decrease
- level of the IGFBP-3 protein (IGFBP-3 protein; 1.0 μg/mL, 96 hours): increase
- level of the IGFBP-3 protein (IGFBP-3 protein; 20 μg/mL, at 6 hours, persisted for at least 48 hours): marked increase
- levels of the IGF-1 protein (IGF-1 protein; 1.0 μg/mL, 96 hours): decrease
- levels of the IGF-1 protein (IGF-1 protein; 20 μg/mL, at 12 hours): moderate decrease
- levels of the IGF-1 protein (IGF-1 protein; 20 μg/mL, at 24 hours): marked decrease
- subsequent incorporation of DilC16 into the plasma membrane (HT29 cells): inhibit
- inhibition of growth [2]: about 55%
- peak plasma concentration [3]: ~1.0 µg/mL
- levels of PGE2 (PGE2): decrease
